Assay results published in US9783511B2, “Carbamate benzoxazine propionic acids and acid derivatives for modulation of RORgamma activity and the treatment of disease” (Merck Sharp & Dohme Corp., priority 2013, dated 2017).

Target: human RORgammaT-Ligand Binding Domain (LBD) (Homo sapiens (Human), UniProt P51449)
Experiment: RORγ-Ligand Binding Domain TR-FRET Assay (co-activator peptide SRC1_2 recruitment)
Format: biochemical
Details: HIS-tagged RORγ-LBD 3 nM, biotinylated SRC1 LXXLL peptide 100 nM, incubated overnight at 4° C., 665 nm/615 nm ratio
How it was run: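 E. coli-expressed, Ni2+-purified HIS-tagged human RORγ-LBD at 3 nM final in 50 mM Tris pH 7.0, 50 mM KCl, 1 mM EDTA, 0.1 mM DTT, 100 μg/mL delipidated BSA. TR-FRET read-out of SRC1_2 co-activator peptide recruitment; compounds dispensed acoustically.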

Sequence of human RORgammaT-Ligand Binding Domain (LBD) (P51449 269-508): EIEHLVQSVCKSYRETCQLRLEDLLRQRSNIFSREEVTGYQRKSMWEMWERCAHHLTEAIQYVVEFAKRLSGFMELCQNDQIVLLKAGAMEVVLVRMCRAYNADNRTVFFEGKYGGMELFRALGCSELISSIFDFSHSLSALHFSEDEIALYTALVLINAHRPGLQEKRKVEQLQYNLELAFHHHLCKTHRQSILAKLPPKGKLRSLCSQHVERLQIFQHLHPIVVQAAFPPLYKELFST

Structure (SMILES) | IC50
Cc1cc(S(=O)(=O)N2C[C@H](CCC(=O)O)Oc3ccc(NC(=O)OC(C)(C)C(F)(F)F)cc32)c(Cl)cc1F [Example 6BA, (S)-3-(4-((2-chloro-4-fluoro-5-methylphenyl)sulfonyl)-6-((((1,1,1-trifluoro-2-methylpropan-2-yl)oxy)carbonyl)amino)-3,4-dihydro-2H-benzo[b][1,4]oxazin-2-yl)propanoic acid] | 7.31 nM
CCn1cc(S(=O)(=O)N2C[C@H](CCC(=O)O)Oc3ccc(NC(=O)OC(C)(C)C(F)(F)F)cc32)c(OC(F)F)n1 [Example 6BC, (S)-3-(4-((3-(difluoromethoxy)-1-ethyl-1H-pyrazol-4-yl)sulfonyl)-6-((((1,1,1-trifluoro-2-methylpropan-2-yl)oxy)carbonyl)amino)-3,4-dihydro-2H-benzo[b][1,4]oxazin-2-yl)propanoic acid] | 11.9 nM
CC(C)(OC(=O)Nc1ccc2c(c1)N(S(=O)(=O)c1cccc(S(F)(F)(F)(F)F)c1)C[C@H](CCC(=O)O)O2)C(F)(F)F [Example 6BD, 3-[(2S)-4-{[3-(pentafluoro-lambda~6~- sulfanyl)phenyl]sulfonyl}-6-{[(2,2,2-trifluoro-1,1-dimethylethoxy)carbonyl]amino}-3,4-dihydro-2H-1,4-benzoxazin-2-yl]propanoic acid] | 14.8 nM
CC(C)(OC(=O)Nc1ccc2c(c1)N(S(=O)(=O)c1cncc(Br)c1)C[C@H](CCC(=O)O)O2)C(F)(F)F [Example 6BU, 3-[(2S)-4-[(5-bromopyridin-3-yl)sulfonyl]-6-{[(2,2,2-trifluoro-1,1-dimethylethoxy)carbonyl]amino}-3,4-dihydro-2H-1,4-benzoxazin-2-yl]propanoic acid] | 10.9 nM
CC(C)(OC(=O)Nc1ccc2c(c1)N(S(=O)(=O)c1cncc(C3CC3)c1)C[C@H](CCC(=O)O)O2)C(F)(F)F [Example 6BV, 3-[(2S)-4-[(5-cyclopropylpyridin-3-yl)sulfonyl]-6-{[(2,2,2-trifluoro-1,1-dimethylethoxy)carbonyl]amino}-3,4-dihydro-2H-1,4-benzoxazin-2-yl]propanoic acid] | 8.84 nM
Cc1cncc(S(=O)(=O)N2C[C@H](CCC(=O)O)Oc3ccc(NC(=O)OC(C)(C)C(F)(F)F)cc32)c1 [Example 6BX, 3-[(2S)-4-[(5-methylpyridin-3-yl)sulfonyl]-6-{[(2,2,2-trifluoro-1,1-dimethylethoxy)carbonyl]amino}-3,4-dihydro-2H-1,4-benzoxazin-2-yl]propanoic acid] | 32.4 nM
COc1cncc(S(=O)(=O)N2C[C@H](CCC(=O)O)Oc3ccc(NC(=O)OC(C)(C)C(F)(F)F)cc32)c1 [Example 6BY, 3-[(2S)-4-[(5-methoxypyridin-3-yl)sulfonyl]-6-{[(2,2,2-trifluoro-1,1-dimethylethoxy)carbonyl]amino}-3,4-dihydro-2H-1,4-benzoxazin-2-yl]propanoic acid] | 27.1 nM
CCOc1sc(CC)nc1S(=O)(=O)N1C[C@H](CCC(=O)O)Oc2ccc(NC(=O)OC(C)(C)C(F)(F)F)cc21 [Example 6CC, 3-[(2S)-4-[(5-ethoxy-2-ethyl-1,3-thiazol-4-yl)sulfonyl]-6-{[(2,2,2-trifluoro-1,1-dimethylethoxy)carbonyl]amino}-3,4-dihydro-2H-1,4-benzoxazin-2-yl]propanoic acid] | 12.4 nM
CCOc1sc(C2CC2)nc1S(=O)(=O)N1C[C@H](CCC(=O)O)Oc2ccc(NC(=O)OC(C)(C)C(F)(F)F)cc21 [Example 6CD, 3-[(2S)-4-[(2-cyclopropyl-5-ethoxy-1,3-thiazol-4-yl)sulfonyl]-6-{[(2,2,2-trifluoro-1,1-dimethylethoxy)carbonyl]amino}-3,4-dihydro-2H-1,4-benzoxazin-2-yl]propanoic acid] | 14.4 nM
CCOc1sc(C(F)(F)F)nc1S(=O)(=O)N1C[C@H](CCC(=O)O)Oc2ccc(NC(=O)OC(C)(C)C(F)(F)F)cc21 [Example 6CE, 3-[(2S)-4-{[5-ethoxy-2-(trifluoromethyl)-1,3-thiazol-4-yl]sulfonyl}-6-{[(2,2,2-trifluoro-1,1-dimethylethoxy)carbonyl]amino}-3,4-dihydro-2H-1,4-benzoxazin-2-yl]propanoic acid] | 67.5 nM
CCc1nc(S(=O)(=O)N2C[C@H](CCC(=O)O)Oc3ccc(NC(=O)OC(C)(C)C(F)(F)F)cc32)c(OC(C)C)s1 [Example 6CF, 3-[(2S)-4-{[2-ethyl-5-(1-methylethoxy)-1,3-thiazol-4-yl]sulfonyl}-6-{[(2,2,2-trifluoro-1,1-dimethylethoxy)carbonyl]amino}-3,4-dihydro-2H-1,4-benzoxazin-2-yl]propanoic acid] | 20 nM
CCc1nc(S(=O)(=O)N2C[C@H](CCC(=O)O)Oc3ccc(NC(=O)OC(C)(C)C(F)(F)F)cc32)c(OCC(F)(F)F)s1 [Example 6CG, 3-[(2S)-4-{[2-ethyl-5-(2,2,2-trifluoroethoxy)-1,3-thiazol-4-yl]sulfonyl}-6-{[(2,2,2-trifluoro-1,1-dimethylethoxy)carbonyl]amino}-3,4-dihydro-2H-1,4-benzoxazin-2-yl]propanoic acid] | 22.9 nM
CC(C)(OC(=O)Nc1ccc2c(c1)N(S(=O)(=O)c1cc(C3CC3)ccc1F)C[C@H](CCC(=O)O)O2)C(F)(F)F [Example 6CH, 3-[(2S)-4-[(5-cyclopropyl-2-fluorophenyl)sulfonyl]-6-{[(2,2,2-trifluoro-1,1-dimethylethoxy)carbonyl]amino}-3,4-dihydro-2H-1,4-benzoxazin-2-yl]propanoic acid] | 18.1 nM
CC(C)(OC(=O)Nc1ccc2c(c1)N(S(=O)(=O)c1cccc(C#N)c1)C[C@H](CCC(=O)O)O2)C(F)(F)F [Example 6L, (S)-3-(4-((3-cyanophenyl)sulfonyl)-6-((((1,1,1-trifluoro-2-methylpropan-2-yl)oxy)carbonyl)amino)-3,4-dihydro-2H-benzo[b][1,4]oxazin-2-yl)propanoic acid] | 11 nM
CC(C)(OC(=O)Nc1ccc2c(c1)N(S(=O)(=O)c1ccc(F)c(F)c1)C[C@H](CCC(=O)O)O2)C(F)(F)F [Example 6N, (S)-3-(4-((3,4-difluorophenyl)sulfonyl)-6-((((1,1,1-trifluoro-2-methylpropan-2-yl)oxy)carbonyl)amino)-3,4-dihydro-2H-benzo[b][1,4]oxazin-2-yl)propanoic acid] | 14 nM
CC(C)(OC(=O)Nc1ccc2c(c1)N(S(=O)(=O)c1cccc(OC(F)(F)F)c1)C[C@H](CCC(=O)O)O2)C(F)(F)F [Example 6S, (S)-3-(6-((((1,1,1-trifluoro-2-methylpropan-2-yl)oxy)carbonyl)amino)-4-((3-(trifluoromethoxy)phenyl)sulfonyl)-3,4-dihydro-2H-benzo[b][1,4]oxazin-2-yl)propanoic acid] | 6 nM
CC(C)(OC(=O)Nc1ccc2c(c1)N(S(=O)(=O)c1cccc(OC(F)F)c1)C[C@H](CCC(=O)O)O2)C(F)(F)F [Example 6T, (S)-3-(4-((3-(difluoromethoxy)phenyl)sulfonyl)-6-((((1,1,1-trifluoro-2-methylpropan-2-yl)oxy)carbonyl)amino)-3,4-dihydro-2H-benzo[b][1,4]oxazin-2-yl)propanoic acid] | 4 nM
CC(C)(OC(=O)Nc1ccc2c(c1)N(S(=O)(=O)c1cccc(S(C)(=O)=O)c1)C[C@H](CCC(=O)O)O2)C(F)(F)F [Example 6X, (S)-3-(4-((3-(methylsulfonyl)phenyl)sulfonyl)-6-((((1,1,1-trifluoro-2-methylpropan-2-yl)oxy)carbonyl)amino)-3,4-dihydro-2H-benzo[b][1,4]oxazin-2-yl)propanoic acid] | 15 nM
CC(C)(C[C@H]1CN(S(=O)(=O)c2cncc(C#N)c2)c2cc(NC(=O)OC(C)(C)C(F)(F)F)ccc2O1)C(=O)O [Example 12M, 3-[(2S)-4-[(5-cyanopyridin-3-yl)sulfonyl]-6-{[(2,2,2-trifluoro-1,1-dimethylethoxy)carbonyl]ami-no}-3,4-dihydro-2H-1,4-benzoxazin-2-yl]-2,2-dimethylpropanoic acid] | 61.8 nM
CCOc1sc(CC)nc1S(=O)(=O)N1C[C@H](CC(C)(C)C(=O)O)Oc2ccc(NC(=O)OC(C)(C)C(F)(F)F)cc21 [Example 12P, 3-[(2S)-4-[(5-ethoxy-2-ethyl-1,3-thiazol-4-yl)sulfonyl]-6-{[(2,2,2-trifluoro-1,1-dimethylethoxy)carbonyl]ami-no}-3,4-dihydro-2H-1,4-benzoxazin-2-yl]-2,2-dimethylpropanoic acid] | 9.22 nM
CCc1nc(S(=O)(=O)N2C[C@H](CC(C)(C)C(=O)O)Oc3ccc(NC(=O)OC(C)(C)C(F)(F)F)cc32)c(OCC(F)(F)F)s1 [Example 12R, 3-[(2S)-4-{[2-ethyl-5-(2,2,2-trifluoroethoxy)-1,3-thiazol-4-yl]sulfonyl}-6-{[(2,2,2-trifluoro-1,1-dimethylethoxy)carbonyl]ami-no}-3,4-dihydro-2H-1,4-benzoxazin-2-yl]-2,2-dimethylpropanoic acid] | 12.6 nM
CCc1nc(S(=O)(=O)N2C[C@H](CC(C)(C)C(=O)O)Oc3ccc(NC(=O)OC(C)(C)C(F)(F)F)cc32)c(OC(C)C)s1 [Example 12S, 3-[(2S)-4-{[2-ethyl-5-(1-methylethoxy)-1,3-thiazol-4-yl]sulfonyl}-6-{[(2,2,2-trifluoro-1,1-dimethylethoxy)carbonyl]ami-no}-3,4-dihydro-2H-1,4-benzoxazin-2-yl]-2,2-dimethylpropanoic acid] | 16.4 nM
CC(C)(C[C@H]1CN(S(=O)(=O)c2c(Cl)nn3c2CCCC3)c2cc(NC(=O)OC(C)(C)C(F)(F)F)ccc2O1)C(=O)O [Example 12Y, 3-[(2S)-4-[(2-chloro-4,5,6,7-tetrahydropyrazolo[1,5-a]pyridin-3-yl)sulfonyl]-6-{[(2,2,2-trifluoro-1,1-dimethylethoxy)carbonyl]ami-no}-3,4-dihydro-2H-1,4-benzoxazin-2-yl]-2,2-dimethylpropanoic acid] | 14.4 nM
